# Assay results reported in patent US20150283093A1, “NANOENCAPSULATION OF CURCUMINOID METABOLITES - PROCESS, COMPOSITION AND APPLICATIONS THEREOF” (priority 2014, published 2015).
# Test: Superoxide radical scavenging activity (alkaline DMSO / NBT method)
# Procedure: The scavenging activity towards the superoxide radical (O2^−) was measured as the inhibition of superoxide radical (O2^−) generation. The method was performed by using alkaline DMSO method. Potassium superoxide and dry DMSO were allowed to stand in contact for 24 h and the solution was filtered immediately before use. […] Ascorbic acid was used as standard. The experiment was repeated in triplicate and the percentage scavenging was calculated by using the formula:
# Inhibition (%)=[(Control−Test)/Control]×100
compound,measurement,setting,value
Cc1c(C)c2c(c(C)c1O)CCC(C)(C(=O)O)O2 (centres unmarked) [TROLOX],"scavenging of superoxide radical (O2−), concentration dependence",,concentration dependant scavenging
same,scavenging potential of superoxide radical (O2−),at 100 μM concentration,47.80%
